{"source": "patent US20070160491A1", "about": "“Method For Determining Lumen Penetration Of A Vapor Phase Sterilant” (priority 2002, published 2007)", "key": {"[1]": {"system": "biological indicators (test microorganisms)", "excerpt": "However, other process variables are also important, such as chamber and load temperature, size and composition of the load and exposure time. For a fixed load configuration in a particular sterilizer with a qualified sterilization cycle, temperature remains relatively constant during injection, so concentration and exposure time become the most important control variables. Area under a concentration-time curve is a useful index for quantifying cycle performance to compare with efficacy as measured via biological indicators.\n(§1) An estimate of the area under the concentration-time curve is obtained by summing the one-second concentration values in the injection and diffusion steps of the cycle, as shown in Table 1 for sterilization cycles in a STERRAD® 200 […] sterilizer available from Advanced Sterilization Products division of Ethicon, Inc., Irvine, Calif., with different lumens in the validation load. The area scale for stainless steel (SS) is established by setting the value of the rate constant k equal to 0.46 sec^−1 to give an area of approximately 100 mg−sec/l for the cycles with 3 mm×500 mm stainless steel lumens at 30° C."}, "[2]": {"settings": "for rate constant of condensation k^C / rate constant of decomposition k^D: 3 mm stainless steel lumen", "excerpt": "k=rate constant for losses in the lumen, sec^−1\nThe rate of mass input per volume to the lumen 20 by internal processes is a negative term, whenever mass is lost in the lumen 20 by decomposition, absorption, adsorption and condensation. In that case the rate constant k is a negative number.\nThe rate constant k cannot be measured experimentally inside the lumen 20 without disturbing the internal environment, so a value is assigned for each lumen material, such as stainless steel and polyethylene. The value is adjusted to provide an area scale, which correlates efficacy results from the sterilization cycles, as discussed below.\nas §1\n(§2) Correcting the rate constant from 0.46 sec^−1 at 30° C. to 1.41 sec^−1 at 5° C. is initiated by writing the rate constant as the sum of the decomposition rate constant k^D and the condensation rate constant k^C. […] For a rate constant 0.46 sec^−1 at 30° C., each individual rate constant of decomposition k^D and condensation k^C is approximately 0.46/2=0.23 sec^−1. […] The rate constant of decomposition k^D at 5° C. is calculated from the rate constant of decomposition k^D at 30° C. and the rate factors for decomposition at 30° C. and 5° C.: k^D at 5° C.=0.23 sec^−1×(1 rate factor at 5° C./7 rate factor at 30° C.)=0.03 sec^−1. […] Finally, the rate constant at 5° C. is calculated as the sum of the rate constants of condensation k^C and of decomposition k^D at 5° C.: k at 5° C.=1.38 sec^−1+0.03 sec^−1=1.41 sec^−1.\nThe adjustment for diameter is made in Table 1 by correcting the rate constant 0.46 sec^−1 for 3 mm stainless steel lumens to 4.14 sec^−1 for 1 mm lumens with factors for the surface to volume ratio and diffusion radius ratio.\nSurface to volume ratio correction factor=(surface/volume)1 mm/(surface/volume)3 mm=(2πrL)1 mm/(2πrL/πr^2L)3 mm=(1/r)1 mm/(1/r)3 mm=[…]=1.5 mm/0.5 mm=3\nIn addition to correction for surface to volume ratio, correction of the rate constant 0.46 sec^−1 for diffusion radius is necessary, because diffusion to the wall of the smaller lumen is greater than for the larger one. Diffusion radius ratio correction factor=(r)3 mm/(r)1 mm=1.5 mm/0.5 mm=3\nThe area scale for the second lumen material, polyethylene (PE), in Table 1 is established similarly for a limiting case in the STERRAD® 200 Sterilizer. The rate constant is set at 0.33 sec^−1 for 1 mm×500 mm lumens to give an area of approximately 100 mg−sec/l. […] The rate constant 0.33 sec^−1 for lumens with 1 mm diameter is corrected with factors for the surface to volume ratio and diffusion radius ratio to obtain the rate constant 0.037 sec-^−1 for 3 mm lumens."}, "[3]": {"settings": "30 °C", "protocol": "as §2"}, "[4]": {"settings": "cited from earlier work"}, "[5]": {"settings": "cited from earlier work", "remark": "listed apart in the source"}, "[6]": {"settings": "lumen 0.8 × 100 mm SS, 30 °C, injection time 6.5 min"}, "[7]": {"settings": "lumen 0.8 × 150 mm SS, 30 °C, injection time 6.5 min"}, "[8]": {"settings": "lumen 1 × 125 mm SS, 30 °C, injection time 6.5 min"}, "[9]": {"settings": "lumen 1 × 500 mm PE, 30 °C, injection time 6.5 min"}, "[10]": {"settings": "lumen 1 × 700 mm PE, 30 °C, injection time 6.5 min"}, "[11]": {"settings": "lumen 3 × 400 mm SS, 5 °C, injection time 6.5 min"}, "[12]": {"settings": "lumen 3 × 400 mm SS, 30 °C, injection time 1 min"}, "[13]": {"settings": "lumen 3 × 400 mm SS, 30 °C, injection time 2 min"}, "[14]": {"settings": "lumen 3 × 400 mm SS, 30 °C, injection time 6.5 min"}, "[15]": {"settings": "lumen 3 × 500 mm SS, 30 °C, injection time 6.5 min"}, "[16]": {"settings": "lumen 3 × 1000 mm PE, 30 °C, injection time 6.5 min"}, "[17]": {"settings": "lumen 3 × 1500 mm PE, 30 °C, injection time 6.5 min"}}, "note": "“And” between values parts separate entries of the source, which are not always exact repeats. Equal entries are not always repeated. Where two headings read alike, the source gives them in different places.", "data": [{"molecule": "OO", "note": "[hydrogen peroxide]", "values": [{"measurement": "Fraction Positive Biological Indicators", "setting": "[1]; [6]", "result": "0/48"}, {"measurement": "Indicator Results Zone", "setting": "[1]; [6]", "result": "Negative"}, {"measurement": "Fraction Positive Biological Indicators", "setting": "[1]; [7]", "result": "2/24"}, {"measurement": "Indicator Results Zone", "setting": "[1]; [7]", "result": "Positive"}, {"measurement": "Fraction Positive Biological Indicators", "setting": "[1]; [8]", "result": "0/36"}, {"measurement": "Indicator Results Zone", "setting": "[1]; [8]", "result": "Negative"}, {"measurement": "Fraction Positive Biological Indicators", "setting": "[1]; [9]", "result": "0/36"}, {"measurement": "Indicator Results Zone", "setting": "[1]; [9]", "result": "Mixed"}, {"measurement": "Fraction Positive Biological Indicators", "setting": "[1]; [10]", "result": "1/12"}, {"measurement": "Indicator Results Zone", "setting": "[1]; [10]", "result": "Positive"}, {"measurement": "Fraction Positive Biological Indicators", "setting": "[1]; [11]", "result": "1/72"}, {"measurement": "Indicator Results Zone", "setting": "[1]; [11]", "result": "Positive"}, {"measurement": "Fraction Positive Biological Indicators", "setting": "[1]; [12]", "result": "4/72"}, {"measurement": "Indicator Results Zone", "setting": "[1]; [12]", "result": "Mixed"}, {"measurement": "Fraction Positive Biological Indicators", "setting": "[1]; [13]", "result": "0/72"}, {"measurement": "Indicator Results Zone", "setting": "[1]; [13]", "result": "Mixed"}, {"measurement": "Fraction Positive Biological Indicators", "setting": "[1]; [14]", "result": "0/72"}, {"measurement": "Indicator Results Zone", "setting": "[1]; [14]", "result": "Negative"}, {"measurement": "Fraction Positive Biological Indicators", "setting": "[1]; [15]", "result": "0/96"}, {"measurement": "Indicator Results Zone", "setting": "[1]; [15]", "result": "Mixed"}, {"measurement": "Fraction Positive Biological Indicators", "setting": "[1]; [16]", "result": "0/36"}, {"measurement": "Indicator Results Zone", "setting": "[1]; [16]", "result": "Negative"}, {"measurement": "Indicator Results Zone", "setting": "[1]; lumen 3 × 1500 mm PE, 30 °C, injection time 20, 25, 30 min", "result": "Negative"}, {"measurement": "Fraction Positive Biological Indicators", "setting": "[1]; [17]", "result": "1/36"}, {"measurement": "Indicator Results Zone", "setting": "[1]; [17]", "result": "Mixed"}, {"measurement": "Fraction Positive Biological Indicators", "setting": "[1]; lumen 3 × 1500 mm PE, 30 °C, injection time 20 min", "result": "0/12"}, {"measurement": "Fraction Positive Biological Indicators", "setting": "[1]; lumen 3 × 1500 mm PE, 30 °C, injection time 25 min", "result": "0/12"}, {"measurement": "Fraction Positive Biological Indicators", "setting": "[1]; lumen 3 × 1500 mm PE, 30 °C, injection time 30 min", "result": "0/12"}, {"measurement": "Fraction Positive BIs", "setting": "[1]; lumen 3 × 1500 mm PE, 30 °C, injection times 20, 25, 30 min pooled", "result": "0/36"}, {"measurement": "−k, rate constant for losses in the lumen", "setting": "[2]; 0.8 mm stainless steel lumens, 30 °C, k3 mm × 3.75 × 3.75", "result": 6.47, "unit": "s⁻¹"}, {"measurement": "−k, rate constant for losses in the lumen", "setting": "[2]; 0.8 mm stainless steel lumens, 30 °C, k3 mm × 3.75 × 3.75, listed as H2O2", "result": 6.47, "unit": "s⁻¹"}, {"measurement": "−k, rate constant for losses in the lumen", "setting": "[2]; 1 mm polyethylene lumens, 30 °C, k chosen to give 100 mg-sec/l area threshold", "result": 0.33, "unit": "s⁻¹"}, {"measurement": "−k, rate constant for losses in the lumen", "setting": "[2]; 1 mm polyethylene lumens, 30 °C, k chosen to give 100 mg-sec/l area threshold, listed as H2O2", "result": 0.33, "unit": "s⁻¹"}, {"measurement": "−k, rate constant for losses in the lumen", "setting": "[2]; 1 mm stainless steel lumens, 30 °C, k3 mm × 3 × 3", "result": 4.14, "unit": "s⁻¹"}, {"measurement": "−k, rate constant for losses in the lumen", "setting": "[2]; 1 mm stainless steel lumens, 30 °C, k3 mm × 3 × 3, listed as H2O2", "result": 4.14, "unit": "s⁻¹"}, {"measurement": "−k, rate constant for losses in the lumen", "setting": "[2]; 1 mm stainless steel lumens, 30 °C, k3 mm × 3 × 3, listed as Hydrogen Peroxide", "result": "4.14 ^d sec^−1"}, {"measurement": "−k, rate constant for losses in the lumen", "setting": "[2]; 3 mm polyethylene lumens, 30 °C, k1 mm/(3 × 3)", "result": 0.037, "unit": "s⁻¹"}, {"measurement": "−k, rate constant for losses in the lumen", "setting": "[2]; 3 mm polyethylene lumens, 30 °C, k1 mm/(3 × 3), listed as H2O2", "result": 0.037, "unit": "s⁻¹"}, {"measurement": "−k, rate constant for losses in the lumen", "setting": "[2]; 3 mm polyethylene lumens, 30 °C, k1 mm/(3 × 3), listed as Hydrogen Peroxide", "result": "0.037 ^f sec^−1 and 0.037 sec^−1"}, {"measurement": "rate constant of condensation k^C", "setting": "[2]; 5 °C", "result": 1.38, "unit": "s⁻¹"}, {"measurement": "rate constant of decomposition k^D", "setting": "[2]; 5 °C", "result": 0.03, "unit": "s⁻¹"}, {"measurement": "rate constant of condensation k^C", "setting": "[2]; 30 °C", "result": "~0.23", "unit": "s⁻¹"}, {"measurement": "rate constant of decomposition k^D", "setting": "[2]; 30 °C", "result": "~0.23", "unit": "s⁻¹"}, {"measurement": "−k, rate constant for losses in the lumen", "setting": "[2]; 3 mm stainless steel lumens, 5 °C, calculated from k at 30 °C, vapor pressure data and decomposition rate factor", "result": 1.41, "unit": "s⁻¹"}, {"measurement": "−k, rate constant for losses in the lumen", "setting": "[2]; 3 mm stainless steel lumens, 5 °C, calculated from k at 30 °C, vapor pressure data and decomposition rate factor, listed as H2O2", "result": 1.41, "unit": "s⁻¹"}, {"measurement": "−k, rate constant for losses in the lumen", "setting": "[2]; 3 mm stainless steel lumens, 5 °C, calculated from k at 30 °C, vapor pressure data and decomposition rate factor, listed as Hydrogen Peroxide", "result": "1.41 ^c sec^−1"}, {"measurement": "−k, rate constant for losses in the lumen", "setting": "[2]; 3 mm stainless steel lumens, 30 °C, k chosen to give 100 mg-sec/l area threshold", "result": 0.46, "unit": "s⁻¹"}, {"measurement": "−k, rate constant for losses in the lumen", "setting": "[2]; 3 mm stainless steel lumens, 30 °C, k chosen to give 100 mg-sec/l area threshold, listed as H2O2", "result": 0.46, "unit": "s⁻¹"}, {"measurement": "Rate Factor for Decomposition", "setting": "[3]", "result": 7}, {"measurement": "vapor pressure of hydrogen peroxide", "setting": "[4]; at 5 °C", "result": 0.46, "unit": "mm Hg"}, {"measurement": "vapor pressure of hydrogen peroxide", "setting": "[4]; at 30 °C", "result": 2.77, "unit": "mm Hg"}, {"measurement": "Rate Factor for Decomposition", "setting": "[5]; 5 °C (base case)", "result": 1}, {"measurement": "Rate Factor for Decomposition", "setting": "[5]; 5 °C (base case), listed as Hydrogen Peroxide", "result": 1, "unit": "Base Case"}, {"measurement": "Rate Factor for Decomposition", "setting": "[5]; 15 °C", "result": 2.2}, {"measurement": "Rate Factor for Decomposition", "setting": "[5]; 25 °C", "result": 4.84}, {"measurement": "Rate Factor for Decomposition", "setting": "[5]; 35 °C", "result": 10.65}, {"measurement": "Rate Factor for Decomposition", "setting": "[5]; 45 °C", "result": 23.4}, {"measurement": "factor by which the decomposition rate increases", "setting": "[5]; per each 10 °C rise in temperature", "result": 2.2}]}]}
